Some test systems named below: A549; HL-60; IGROV-1; K562; KM12; LOX IMVI; MOLT-4; NCI-H460; OVCAR-3; OVCAR-5; SK-MEL-28; SNB-19; SNB-75; SR; U-251; DU-145; MDA-N; NCI/ADR-RES; PC-3.
Common to all, as to experiment: NCI anticancer screen, dose series, 48 h

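Briefly, cells in 96-well plates were exposed to five compound concentrations for 48 h, and endpoints were estimated by linear interpolation. GI50 is the concentration that inhibits growth by half.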 Active and inactive are the calls of the source. Rule as the data show it: active = GI50 up to about 1.1 µM and inactive = higher.

For the compound `COc1cc2c(Cc3cc(OCc4ccccc4)ccc3N)nccc2c(OC)c1OC`, the GI50 with A549, in the test on HL-60, in the test with IGROV-1, in the test on K562, with KM12 and with LOX IMVI was > 10 µM (inactive) each time. Besides, the GI50 with MOLT-4, with NCI-H460, in the test with OVCAR-3, in the test with OVCAR-5, in the test with SK-MEL-28 and in the test on SNB-19 was > 10 µM (inactive) in each case. The GI50 with SNB-75, in the test with SR and in the test on U-251 was > 10 µM (inactive) each time.

In the case of `COc1cc2c3c([nH]c2c(OC)c1OC)CCN(Cc1ccccc1)C3`, the GI50 with A549 was 86.7 µM (inactive); in the test with DU-145, > 100 µM (inactive); in the test with HL-60, 21.4 µM (inactive); with IGROV-1, 57.7 µM (inactive); with K562, 20.2 µM (inactive); with KM12, > 100 µM (inactive). For the same compound, the GI50 was 16.3 µM (inactive) with LOX IMVI; 16.9 µM (inactive) in the test with MDA-N; 25.1 µM (inactive) in the test with MOLT-4; 14.9 µM (inactive) in the test on NCI-H460; 29.9 µM (inactive) in the test with NCI/ADR-RES; 64.6 µM (inactive) in the test on OVCAR-3. In addition, the GI50 in the test with OVCAR-5 was 23.8 µM (inactive); with PC-3 it was 55.1 µM (inactive); in the test with SK-MEL-28, 21.6 µM (inactive); in the test on SNB-19 it was 3.07 µM (inactive); in the test with SNB-75 it was 42.1 µM (inactive); with U-251, 31.8 µM (inactive).

Consider `COc1cc(/C=C2\NC(=S)C3Cc4c(OC)c(C)c(OC)c(OC)c4C2N3C)c(OC)c(C)c1OC` (stereo not given), for which the GI50 is 50.6 µM (inactive) in the test on A549; 25.2 µM (inactive) in the test with HL-60; > 100 µM (inactive) with IGROV-1; 49.4 µM (inactive) in the test with K562; 92.9 µM (inactive) in the test on KM12; 48 µM (inactive) with LOX IMVI. The GI50 with MOLT-4 was 21.2 µM (inactive); with NCI-H460, 14.9 µM (inactive); in the test on OVCAR-3, 31 µM (inactive); with OVCAR-5, > 100 µM (inactive); in the test with SK-MEL-28 it was > 100 µM (inactive); in the test on SNB-19, 65.3 µM (inactive). In addition, the GI50 in the test with SNB-75 was > 100 µM (inactive); in the test with SR, 10.4 µM (inactive); in the test with U-251, 45.1 µM (inactive).

`CC(=O)c1c2c(cc3c1CC1(Cc4cc5c(cc4C1)CCCC5)C3)CCCC2`: the GI50 with A549 is > 100 µM (inactive); with HL-60, 7.85 µM (inactive); in the test with IGROV-1 it was 45 µM (inactive); in the test with K562, 9.66 µM (inactive); in the test with KM12, > 100 µM (inactive); with LOX IMVI it was 55.1 µM (inactive). For the same compound, the GI50 was 16.4 µM (inactive) in the test with MDA-N; 12.1 µM (inactive) with MOLT-4; > 100 µM (inactive) with NCI/ADR-RES; 27.2 µM (inactive) with OVCAR-3; > 100 µM (inactive) with OVCAR-5; 51.4 µM (inactive) in the test on PC-3. For the same compound, the GI50 was < 0.01 µM (active) in the test on SNB-75, 2.05 µM (inactive) in the test on SR and > 100 µM (inactive) in the test on U-251.

As for `C[C@@H]1C[C@@H]2C(=O)N(c3ccccc3)C(=O)[C@@H]2c2[nH]c3ccc(Br)cc3c21`, the GI50 with A549 was 33.6 µM (inactive); with HL-60 it was 26.8 µM (inactive); in the test with IGROV-1 it was 87.1 µM (inactive); in the test on K562, 49.1 µM (inactive); in the test with KM12 it was 25.2 µM (inactive); with LOX IMVI, 96.8 µM (inactive). For the same compound, the GI50 was 25 µM (inactive) with MOLT-4; 42.3 µM (inactive) in the test with NCI-H460; 23.7 µM (inactive) in the test with OVCAR-3; > 100 µM (inactive) with OVCAR-5; > 100 µM (inactive) with SK-MEL-28; 29.6 µM (inactive) with SNB-19. Besides, the GI50 in the test on SNB-75 was 20.2 µM (inactive); in the test on SR it was 42 µM (inactive); with U-251, 13.5 µM (inactive).

On to `COc1ccc(C(=O)O/N=C2/CCCCC2CN(C)C)cc1` (stereo not given), for which the GI50 with A549, with HL-60, in the test on IGROV-1, in the test on K562, in the test on KM12 and in the test on LOX IMVI was > 100 µM (inactive) throughout. Also, the GI50 in the test with MOLT-4, in the test with NCI-H460, in the test on OVCAR-3, in the test on OVCAR-5, in the test on SK-MEL-28 and in the test with SNB-75 was > 100 µM (inactive) throughout. Also, the GI50 with SR and in the test on U-251 was > 100 µM (inactive) in each case.

Regarding `[N-]=[N+]=Nc1c(Cc2ccccc2)c(Cl)nc2ccccc12`, the GI50 in the test on A549 was 36.3 µM (inactive); with DU-145 it was 42.8 µM (inactive); in the test with HL-60 it was 23.8 µM (inactive); in the test on IGROV-1, 26.6 µM (inactive); in the test on K562, 23.9 µM (inactive); in the test with KM12, 16.3 µM (inactive). In addition, the GI50 in the test with LOX IMVI was 18.4 µM (inactive); in the test with MDA-N it was 21.9 µM (inactive); in the test on MOLT-4, 28.8 µM (inactive); with NCI-H460, 35.4 µM (inactive); in the test with NCI/ADR-RES, 22.4 µM (inactive); in the test on OVCAR-3 it was 12.5 µM (inactive). In addition, the GI50 is 31 µM (inactive) with OVCAR-5; 25.6 µM (inactive) in the test with PC-3; 45.5 µM (inactive) with SK-MEL-28; 19.1 µM (inactive) with SNB-19; 22.6 µM (inactive) in the test with SNB-75.

For the compound `NC(=O)/C(=N\NC(=O)C[n+]1ccccc1)C1NC(=O)NC1=O` (stereo not given), the GI50 with A549, with HL-60, in the test on IGROV-1, in the test with K562, in the test with KM12 and in the test on LOX IMVI was > 100 µM (inactive) in each case. Moreover, the GI50 in the test with MOLT-4, in the test with NCI-H460, in the test on OVCAR-3, in the test on OVCAR-5, in the test on SK-MEL-28 and in the test on SNB-19 was > 100 µM (inactive) each time. Further, the GI50 in the test with SNB-75 and with SR was > 100 µM (inactive) in each case.

For the compound `CC1C(c2ccccc2)=CCON1c1ccccc1` (stereo not given), the GI50 in the test with A549, in the test with HL-60, with IGROV-1, with K562, in the test with KM12 and in the test with LOX IMVI was > 100 µM (inactive) throughout. Besides, the GI50 with MOLT-4, with NCI-H460, in the test with OVCAR-3, in the test with OVCAR-5, with SK-MEL-28 and with SNB-19 was > 100 µM (inactive) each time. The GI50 in the test on SNB-75, in the test on SR and with U-251 was > 100 µM (inactive) in each case.

With `CCCCN(CC)CC(C(C)=O)c1c(O)c2ccccc2oc1=O` (stereo not given), the GI50 in the test with A549, in the test on HL-60, in the test with IGROV-1, with K562, with KM12 and in the test with LOX IMVI was > 100 µM (inactive) throughout. The GI50 in the test with MOLT-4, in the test on NCI-H460, with OVCAR-3, in the test on OVCAR-5, with SK-MEL-28 and in the test on SNB-19 was > 100 µM (inactive) in each case. Further, the GI50 with SNB-75, in the test on SR and in the test on U-251 was > 100 µM (inactive) in each case.

Regarding `COC1(OC)N=C(N)C2(C#N)C(C)CC(=O)N(N(C)C)C12C#N` (stereo not given), the GI50 with A549, with DU-145, in the test with HL-60, in the test with IGROV-1, with K562 and in the test with KM12 was > 100 µM (inactive) throughout. The GI50 in the test with LOX IMVI, in the test with MOLT-4, with NCI/ADR-RES, in the test with OVCAR-5, in the test on PC-3 and with SK-MEL-28 was > 100 µM (inactive) in each case. The GI50 is > 100 µM (inactive) with SNB-19, 40.5 µM (inactive) in the test with SNB-75, > 100 µM (inactive) in the test on SR and > 100 µM (inactive) in the test on U-251.

With `COc1ccccc1/C=N/C12CC3CC(CC(C3)C1)C2`, the GI50 in the test with A549 is > 100 µM (inactive); with HL-60, 73.6 µM (inactive); in the test with K562 it was 32.4 µM (inactive); in the test with KM12 it was > 100 µM (inactive); in the test on LOX IMVI it was > 100 µM (inactive); with MOLT-4, > 100 µM (inactive). The GI50 was > 100 µM (inactive) in the test with NCI-H460; > 100 µM (inactive) in the test on OVCAR-3; > 100 µM (inactive) in the test on OVCAR-5; > 100 µM (inactive) in the test on SK-MEL-28; > 100 µM (inactive) in the test with SNB-19; 86.9 µM (inactive) in the test on SNB-75. Also, the GI50 in the test with SR and in the test on U-251 was > 100 µM (inactive) throughout.

On to `Cc1ccc(S(=O)(=O)N/N=c2/sc3ccccc3n2C)cc1`, for which the GI50 with A549, in the test on DU-145, in the test with HL-60, in the test with IGROV-1, in the test with K562 and in the test with KM12 was > 100 µM (inactive) each time. Moreover, the GI50 in the test with LOX IMVI, in the test with MOLT-4, in the test on NCI-H460, in the test on NCI/ADR-RES, with OVCAR-5 and in the test with PC-3 was > 100 µM (inactive) in each case. Moreover, the GI50 in the test with SK-MEL-28, in the test on SNB-19, in the test on SNB-75, in the test on SR and in the test on U-251 was > 100 µM (inactive) throughout.

For the origin of these results see ChEMBL document CHEMBL1201862, “PubChem BioAssay data set” (2004).
